Results on 20 compounds are retold here after patent EP2945947B1, “INHIBITING THE TRANSIENT RECEPTOR POTENTIAL A1 ION CHANNEL” (Merck Sharp & Dohme Corp., priority 2013, dated 2014).

Structures are written as SMILES. In brackets after ≈: the same amount, converted by molar mass. Like-named read-outs stand apart in the source and are kept apart here.

One data set deals with human TRPA1 (Homo sapiens, UniProt O75762). As to the kind of experiment: Inhibition of the TRPA1 ion channel, whole cell patch configuration (Example 1). It is filed as cell-based. The following applies: current activation 10 µM AITC, read-out: Human TRPA1 IC50 Inward Current. Here is the method:
Compounds of Formula (Ia) inhibit the TRPA1 channel, as measured using the method of Example 1. […] Data for TRPA1 inhibition and for TRPA1 selectivity was obtained by this method for the indicated compounds of Formula (Ia), with the relevant data included in Tables 1a - f below. All currents were recorded in whole-cell configuration using EPC-9 and EPC-10 amplifiers and Patchmaster software (HEKA). […] The standard pipette solution consisted of 140mM CsAsp, 10 mM EGTA, 10 mM HEPES, 2.27 mM MgCl2, 1.91 mM CaCl2, 4 mM MgATP, and 0.1-0.3 mM Na2GTP, with pH adjusted to 7.2 with CsOH. In addition, a solution containing 145 mM CsCl, 10 mM HEPES, 10 mM EGTA and 1 mM MgCl2 (pH 7.2 adjusted with CsOH) can be used. The standard bath solution contained 150 mM NaCl, 10 mM HEPES, 10 mM glucose, 4.5 mM KCl, 1 mM EGTA, 3 mM MgCl2, with pH adjusted to 7.4 with NaOH. In some instances, 2 mM CaCl2 was added in place of EGTA and the concentration of MgCl2 was reduced to 1 mM.
Data were collected either by continuous recordings at -60 mV or by applying voltage ramps from a holding potential of 0 mV every 4 s. Continuous recordings were collected at 400 Hz and digitally filtered off-line at 10 Hz for presentation. Voltage ramps were applied from - 100 mV to 100 mV over the course of 400 ms, and data were collected at 10 kHz and filtered at 2.9 kHz. Inward and outward currents were analyzed from the ramps at -80 and 80 mV, respectively. Liquid junction potential correction was not used.
Solutions were switched using a gravity-fed continuous focal perfusion system. To achieve rapid temperature changes, two temperature control, and perfusion systems were employed simultaneously. For temperatures ≥ 22°C, a Warner Instruments bipolar temperature controller (TC-344B) and inline heater (SHM-8) were used. […] Temperatures were confirmed using a thermistor (Warner Instruments, TA-29), with temperatures at the recorded cell estimated to be within +/- 2°C of those reported.
The antagonist effects of compounds of Formula (Ia) against human TRPA1 ("hTRPA1") and for some compounds rat TRPA1 ("rTRPA1") in a whole cell patch configuration were evaluated using the in vitro assay described above. The current activation tested was 10 µM AITC, and the tested concentrations ranged from 5 µM and 500 nM. Table 1a (Comparative Compounds)

Data set [1] can be described thus: Aqueous solubility in buffered solutions, HPLC (Example 2). It is filed as physicochemical. To be noted: kinetic from dmso stock, ambient temperature.
A further data set concerns rats. In words: Rodent formalin pain model (Example 3). It is filed as in vivo. To be noted: rat; for Minimal Efficacious Dose of Compound in Formalin Model: IV, statistically significant difference vs vehicle at 0 - 2 min (p≤0.05); for Duration of Pain Behavior: first two minutes after formalin, vehicle 88.6. Here is the method:
Compounds of Formula (Ia) are active in rodent models of pain induced by direct activation of the TRPA1 channel with intraplantar injection of the TRPA1 agonist formalin. Compounds of Formula (Ia) were tested in the formalin-induced pain test reported by Abbott et. al. Pain. 1995 Jan;60(1):91-102. Dubuisson et al. describe a method for assessing pain and analgesia in rats. Briefly, dilute formalin (50 µL of 3 % formalin) is injected into the plantar surface of the hind paw. […] The individual responsible for counting the pain behaviors in a particular study is blinded to the treatment groups.
Table 2 is a data table showing the results from testing compounds of Formula (Ia) in the rodent formalin-induced pain model described in […]. Rats were treated with the compounds of Formula (Ia) at various doses (0.1, 0.3, 1, 1.2, 3, 4, 10, or 30 mg/Kg IV) or with a control composition containing the vehicle (i.e., without a compound of Formula (Ia)). Pain behaviors (flinch, lift, lick, bite) were monitored following intraplantar formalin injection. Referring to Table 2, the minimum effective dose was derived from dose resulting in statistically significant difference in behavior at 0 - 2 min time period as compared with vehicle (p≤0.05).

[2] abbreviates: sodium bicarbonate buffer in water for injection/5% dextrose, pH 9.0, 50 mM sodium bicarbonate, read-out: pH 9.0 aqueous solubility.
Where [3] appears, read: sodium phosphate buffer in water for injection/5% dextrose, pH 7.4, 75 mM sodium phosphate, read-out: pH 7.4 aqueous solubility.

Chain of human TRPA1 (O75762 whole entry): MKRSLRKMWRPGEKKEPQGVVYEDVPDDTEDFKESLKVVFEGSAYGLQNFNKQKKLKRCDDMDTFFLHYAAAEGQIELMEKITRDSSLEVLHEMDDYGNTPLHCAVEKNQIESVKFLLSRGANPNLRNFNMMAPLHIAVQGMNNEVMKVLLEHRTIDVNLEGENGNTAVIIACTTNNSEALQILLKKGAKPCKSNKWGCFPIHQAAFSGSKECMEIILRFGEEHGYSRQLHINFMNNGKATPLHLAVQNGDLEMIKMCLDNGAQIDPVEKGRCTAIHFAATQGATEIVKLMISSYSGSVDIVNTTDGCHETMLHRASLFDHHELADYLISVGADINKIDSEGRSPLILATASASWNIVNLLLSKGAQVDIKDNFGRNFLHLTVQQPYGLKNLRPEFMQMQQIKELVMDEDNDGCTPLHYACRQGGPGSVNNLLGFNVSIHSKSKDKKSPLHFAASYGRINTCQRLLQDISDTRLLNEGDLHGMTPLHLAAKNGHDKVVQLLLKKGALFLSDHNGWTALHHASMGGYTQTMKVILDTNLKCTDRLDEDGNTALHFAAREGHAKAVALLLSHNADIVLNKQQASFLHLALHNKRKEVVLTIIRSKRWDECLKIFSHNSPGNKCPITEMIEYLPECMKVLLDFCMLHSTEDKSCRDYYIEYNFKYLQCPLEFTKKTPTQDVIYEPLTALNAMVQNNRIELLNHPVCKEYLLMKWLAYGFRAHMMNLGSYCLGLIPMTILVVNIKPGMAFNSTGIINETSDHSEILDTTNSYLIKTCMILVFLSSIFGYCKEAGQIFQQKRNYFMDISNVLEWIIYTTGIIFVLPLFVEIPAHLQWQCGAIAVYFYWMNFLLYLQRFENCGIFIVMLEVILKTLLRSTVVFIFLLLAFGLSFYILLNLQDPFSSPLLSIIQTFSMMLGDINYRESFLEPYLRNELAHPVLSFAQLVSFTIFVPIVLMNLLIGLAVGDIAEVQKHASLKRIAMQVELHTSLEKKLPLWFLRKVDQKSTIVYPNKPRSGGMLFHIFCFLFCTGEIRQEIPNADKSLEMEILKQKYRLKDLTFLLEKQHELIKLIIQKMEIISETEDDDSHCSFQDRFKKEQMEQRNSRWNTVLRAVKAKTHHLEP

What is called IC50 is the concentration needed to halve the response being measured. With `CC(C)c1ccc(NC(=O)C(C)n2cnc3c2c(=O)n(C)c(=O)n3C)cc1` (stereo not shown) [Comparator 3, reference compound], the IC50 on human TRPA1 was greater than 100 nM.

On to `C[C@H]1CCCN1c1ccc(-c2csc(NC(=O)C(C)(C)n3cnc4c3c(=O)n(C)c(=O)n4C)n2)cc1F` [Comparator 4, reference compound], for which the IC50 at human TRPA1 is greater than 100 nM.

Take `C[C@H]1CCCN1c1cncc(NC(=O)[C@H](C)N2C=NC3C2C(=O)N(C)C(=O)N3C)n1` (stereo partly shown) [Comparator 5, reference compound]: the IC50 on human TRPA1 is greater than 100 nM.

For `C[C@H]1CCCN1c1cccc(NC(=O)[C@H](C)N2C=NC3C2C(=O)N(C)C(=O)N3C)n1` (stereo partly shown) [Comparator 6, reference compound], on human TRPA1, the IC50 is greater than 100 nM.

With `C[C@@H](C(=O)Nc1cccc(-c2cnc(N3CCC[C@H]3C(F)(F)F)nc2)n1)n1cnc2c1c(=O)n(C)c(=O)n2C` [Compound 1-B, (S)-2-(1,3-Dimethyl-2,6-dioxo-1,2,3,6-tetrahydro-7H-purin-7-yl)-N-(6-(2-((S)-2-(trifluoromethyl)pyrrolidin-1-yl)pyrimidin-5-yl)pyridin-2-yl)propanamide], the solubility kinetic at 24 h in data set [1] (setting [2]) came out at 49 µg/mL (≈ 90.2 µM); in data set [1] (setting [3]), 44 µg/mL (≈ 81 µM). The “Minimal Efficacious Dose of Compound in Formalin Model” value (shortened to “Minimal Efficacious Dose of Compound”) in the data set with rats is recorded as less than 3 mg/kg. Further, the “Duration of Pain Behavior” value with rats (dose 3 mg/kg IV) came to 6.1 s; in the data set on rats (dose 10 mg/kg IV), 0.3 s. Moreover, the IC50 on human TRPA1 was less than 25 nM.

With `CC(C(=O)Nc1cccc(-c2cnc(N3CCC[C@H]3C(F)(F)F)nc2)n1)n1cnc2c1c(=O)n(C)c(=O)n2C` (stereo partly shown) [Compound 1-C], the IC50 at human TRPA1 is less than 25 nM.

For the compound `C[C@H](C(=O)Nc1cccc(-c2cnc(N3CCC[C@H]3C(F)(F)F)nc2)n1)n1cnc2c1c(=O)n(C)c(=O)n2C` [Compound 1-D], at human TRPA1, the IC50 is greater than 100 nM.

For the compound `C[C@@H](C(=O)Nc1cncc(-c2cnc(N3CCCC3(C)C)nc2)n1)n1cnc2c1c(=O)n(C)c(=O)n2C` [Compound 2-F, (S)-2-(1,3-dimethyl-2,6-dioxo-1,2,3,6-tetrahydro-7H-purin-7-yl)-N-(6-(2-(2,2-dimethylpyrrolidin-1-yl)pyrimidin-5-yl)pyrazin-2-yl)propanamide], the solubility kinetic at 24 h in data set [1] (setting [2]) and in data set [1] (setting [3]) was 6 µg/mL (≈ 11.9 µM) each time. For the same compound, in the data set with rats, the “Minimal Efficacious Dose of Compound” value turned out to be 1 mg/kg. Further, the “Duration of Pain Behavior” value is 67.5 s in the data set with rats (dose 0.3 mg/kg IV), 7 s in the data set with rats (dose 1 mg/kg IV) and 5 s in the data set on rats (dose 3 mg/kg IV). At human TRPA1, the IC50 is less than 25 nM.

For `C[C@H](C(=O)Nc1cncc(-c2cnc(N3CCCC3(C)C)nc2)n1)n1cnc2c1c(=O)n(C)c(=O)n2C` [Compound 2-G], the IC50 on human TRPA1 is greater than 100 nM.

For `[2H]C([2H])([2H])n1c(=O)n(C)c(=O)c2c1ncn2[C@@H](C)C(=O)Nc1cncc(-c2cnc(N3CCCC3(C)C)nc2)n1` [Compound 2-H], the IC50 at human TRPA1 was less than 25 nM.

In the case of `[2H]C([2H])([2H])n1c(=O)n(C)c(=O)c2c1ncn2[C@H](C)C(=O)Nc1cncc(-c2cnc(N3CCCC3(C)C)nc2)n1` [Compound 2-I], at human TRPA1, the IC50 is greater than 100 nM.

As for `C[C@H]1CCCN1c1ncc(-c2cncc(NC(=O)[C@H](C)n3cnc4c3c(=O)n(C)c(=O)n4C)n2)cn1` [Compound 3-K, (S)-2-(1,3-dimethyl-2,6-dioxo-1,2,3,6-tetrahydro-7H-purin-7-yl)-N-(6-(2-((S)-2-methylpyrrolidin-1-yl)pyrimidin-5-yl)pyrazin-2-yl)propanamide], the solubility kinetic at 24 h in data set [1] (setting [2]) was determined as 48 µg/mL (≈ 97.9 µM); in data set [1] (setting [3]), 38 µg/mL (≈ 77.5 µM). Besides, the “Minimal Efficacious Dose of Compound” value in the data set with rats is given as less than 3 mg/kg. The “Duration of Pain Behavior” value in the data set on rats (dose 3 mg/kg IV) came to 13.5 s; in the data set on rats (dose 10 mg/kg IV) it was 2.6 s; in the data set on rats (dose 30 mg/kg IV) it was 3.4 s. At human TRPA1, the IC50 fell in the range of 25 to 75 nM.

For `C[C@H](C(=O)Nc1cncc(-c2cnc(N3CCC[C@@H]3C)nc2)n1)n1cnc2c1c(=O)n(C)c(=O)n2C` [Compound 3-L], the 50% inhibitory concentration (IC50) at human TRPA1 is greater than 100 nM.

Consider `[2H]C([2H])([2H])n1c(=O)n(C)c(=O)c2c1ncn2[C@@H](C)C(=O)Nc1cncc(-c2cnc(N3CCC[C@@H]3C)nc2)n1` [Compound 3-M], for which, on human TRPA1, the IC50 was less than 25 nM.

For `C[C@H]1CCCN1c1ncc(-c2cncc(NC(=O)[C@H](C)n3cnc4c3c(=O)n(C)c(=O)n4C)n2)cn1` [Compound 3-N, (S)-2-(1,3-dimethyl-2,6-dioxo-1,2,3,6-tetrahydro-7H-purin-7-yl)-N-(6-(2-((S)-2-methylpyrrolidin-1-yl)pyrimidin-5-yl)pyrazin-2-yl)propanamide], at human TRPA1, the IC50 was greater than 100 nM.

Take `C[C@H]1CCCN1c1ncc(-c2cccc(NC(=O)[C@H](C)n3cnc4c3c(=O)n(C)c(=O)n4C)n2)cn1` [Compound 4-P]: the IC50 at human TRPA1 lay within 25 to 75 nM.

In the case of `CC(C(=O)Nc1cccc(-c2cnc(N3CCC[C@@H]3C)nc2)n1)n1cnc2c1c(=O)n(C)c(=O)n2C` (stereo partly shown) [Compound 4-Q], the IC50 on human TRPA1 lay in the range of 25 to 75 nM.

As for `C[C@H](C(=O)Nc1cccc(-c2cnc(N3CCC[C@@H]3C)nc2)n1)n1cnc2c1c(=O)n(C)c(=O)n2C` [Compound 4-R], the 50% inhibitory concentration (IC50) at human TRPA1 was greater than 100 nM.

Take `CC(C(=O)Nc1cncc(-c2cnc(N3CCC[C@H]3C(F)(F)F)nc2)n1)n1cnc2c1c(=O)n(C)c(=O)n2C` (stereo partly shown) [Compound 5-U]: on human TRPA1, the half-inhibitory concentration (IC50) is less than 25 nM.

As to `C[C@H](C(=O)Nc1cncc(-c2cnc(N3CCC[C@H]3C(F)(F)F)nc2)n1)n1cnc2c1c(=O)n(C)c(=O)n2C` [Compound 5-V], the IC50 at human TRPA1 is greater than 100 nM.
